Results published in US9175355B2, “Methods for determining the presence of antibodies blocking viral infection” (Monogram Biosciences, Inc., priority 2002, dated 2015).

Experiments:
X4 tropic viruses = conditions: inhibitory concentration of drug; U87/CD4/CXCR4
Method: One cell line expresses CD4 plus CCR5 (U87/CD4/CCR5), also referred to as R5 cells in this application. The other cell line expresses CD4 and CXCR4 (U87/CD4/CXCR4) also referred to as X4 cells in this application. The virus entry assay is performed by infecting individual cell cultures with recombinant virus stocks derived from cells transfected with pHIVenv and pHIV luc or pHIVlucΔU3 vectors. pHIVenv vectors contain patient virus derived sequences and express HIV-1 envelope proteins (gp120SU, gp41TM). In this embodiment viruses are evaluated in using R5 and X4 target cells cultured in 96 well plates (FIG. 3A). Typically, R5 and X4 cells are plated one day prior to infection. […] Co-receptor tropism is assessed by comparing the amount of luciferase activity produced in each cell type, both in the presence and absence of drug. In this embodiment, the results of the assay are interpreted by comparing the ability of each virus to preferentially infect (produce luciferase activity) R5 cells or X4 cells, or both X4 and R5 cells if the virus is dual tropic. The ability of the CCR5 or CXCR4 inhibitor to specifically block infection (inhibit luciferase activity) is also evaluated (FIG. 3B).

[1] = tested on: HIV-1 (NL4-3, JRCSF) with mutations in the GIV motif of gp41; experiment: Virus entry assay: T-20 susceptibility of site directed gp41 mutant viruses; type: cell-based; conditions: cells expressing CD4, CCR5 and CXCR4; luciferase; compared by IC50
Method: Susceptibility assays for HIV-1 entry inhibitors were performed using packaging host cells consisting of the human embryonic kidney cell line 293 (Cell Culture Facility, UC San Francisco, SF, CA) and target host cells consisting of a human osteosarcoma (HOS) cell line expressing CD4 (HT4) plus CCR5, and CXCR4, or astrocytoma (U-87) cell lines expressing either CD4 and CCR5 or CD4 and CXCR4.
Drug susceptibility testing was performed using pHIVenv and pHIVluc or pHIVlucΔU3. Pseudotyped HIV particles containing envelope proteins encoded by the patient derived segment were produced by transfecting a packaging host cell (HEK 293) with resistance test vector DNA. […] After infection (˜72 h) the target cells are lysed and luciferase activity is measured. […] The amount of luciferase activity detected in the infected cells is used as a direct measure of “infectivity” (FIGS. 1 and 2). […] Drug susceptibility is assessed by comparing the infectivity in the absence of drug to infectivity in the presence of drug. Relative drug susceptibility can be quantified by comparing the susceptibility of the “test” virus to the susceptibility of a well-characterized reference virus (wildtype) derived from a molecular clone of HIV-1, for example NL4-3 or HXB2. […]

Compound | Infection of X4 cells by X4 tropic viruses (luciferase activity) (X4 tropic viruses) | T-20 susceptibility of viruses with one mutation in gp41 motif (DIV, GIM, SIV) vs wildtype virus (GIV) [1] | T-20 susceptibility of viruses with two mutations in GIV motif (DIM, SIM, DTV) vs viruses with one or no mutations [1]
c1cc(CN2CCCNCCNCCCNCC2)ccc1CN1CCCNCCNCCCNCC1 [AMD3100] | blocked |  | 
enfuvirtide |  | less susceptible | less susceptible
